Patent US6559182B1 (Purcell Jojoba International, LLC, priority 2001, dated 2003)

Each compound was assayed on Herpes simplex (HSV1 facial herpes or HSV2 genital herpes) (assay: Survey of Herpes simplex patients who treated themselves with jojoba oil esters). Details: jojoba oil esters compared with the previously used medication.
Type: in vivo, human
Text: The study included male and female subjects with a history of multiple Herpes simplex infections that were either HSV1 facial herpes or HSV2 genital herpes. There was non intentional discrimination as to age, sex, and educational or ethnic background.
In this study 57 subjects compared jojoba oil ester treatment with previously used remedies, including no treatment at all. Each subject was given directions as to how to apply the jojoba oil esters. Subjects were advised to begin treatment at the very earliest warning symptoms of burning, itching or tingling that precede a new cold sore outbreak. They were directed to apply one drop of the solution to the herpes area with their finger, then reapply it again in 15 minutes and at mealtimes and bedtime for three days.
The study utilized a survey sheet that included the average number of outbreaks per year in the past, time and date of this new outbreak and how many hours after the first symptoms before treatment was started. Subjects reported the number of doses applied, and the number of days from the onset until they were free of symptoms. They also rated the effectiveness of this treatment compared to previous remedies they had used.

Row | Structure (SMILES) | % reporting jojoba Ester more Effective [%] | JOE a little More effective (number of patients who had used this Rx) | JOE a little less effective (number of patients who had used this Rx) | JOE avg effective (number of patients who had used this Rx) | JOE much more effective (number of patients who had used this Rx)
1 | Nc1nc2c(ncn2COCCO)c(=O)[nH]1 [Acyclovir/Zovirax, Acyclovir] | 84 | 2 | 1 | 2 | 14
2 | CC(=O)Oc1ccccc1C(=O)O [Aspirin] | 100 | – | – | – | 1
3 | C[S+](C)[O-] [DMSO] | 100 | 1 | – | – | –
4 | CC(=O)OCC(CCn1cnc2cnc(N)nc21)COC(C)=O [Famavir] | 100 | – | – | – | 1
5 | OO [Hydrogen peroxide] | 100 | 1 | – | – | 1
6 | NCCCC[C@H](N)C(=O)O [Lycine] | 67 | – | – | 2 | 4
7 | CC(C)[C@H](N)C(=O)OCCOCn1cnc2c(=O)[nH]c(N)nc21 [Valtrex] | 100 | 1 | – | – | 1
8 | CC[C@H]1OC(=O)[C@H](C)[C@@H](O[C@H]2C[C@@](C)(OC)[C@@H](O)[C@H](C)O2)[C@H](C)[C@@H](O[C@@H]2O[C@H](C)C[C@H](N(C)C)[C@H]2O)[C@](C)(O)C[C@@H](C)CN(C)[C@H](C)[C@@H](O)[C@]1(C)O [Zithromax] | 100 | – | – | – | 1
